Results taken from patent US20170003275A1, “METHOD TO IDENTIFY COMPOUNDS ABLE TO BIND TO THE ROSSMANN FOLD OF C-TERMINAL-BINDING PROTEINS, IDENTIFIED COMPOUNDS AND MEDICAL USES THEREOF” (CONSIGLIO NAZIONALE DELLE RICERCHE, priority 2013, published 2017).
Where two headings read alike, the source gives them in different places.

Columns and labels:
recombinant BARS = biological target: T1, recombinant BARS (Rattus norvegicus, UniProt Q9Z2F5); assay: NAD competition assay ([3H]-NAD+ binding to BARS, dot blot); details: for NAD Displac. (%): 10 μM [3H]-NAD+, molecules 0.01 to 100 μM, 2 h 37° C.; for competition for the binding of NAD to BARS (selection): 0.01 to 100 μM
T1 construct: His; made in house
Procedure: Five μg of recombinant BARS were incubated for 2 h at 37° C. in 100 μl buffer (20 mM HEPES at pH 7.4, 25 mM NaCl and 10 μM [^3H]-NAD^+ (specific activity: 1 μCi/μmol)) in the presence of a range of concentrations (from 0.01 to 100 μM) of the molecules listed in table 1. At the end of the incubation BARS was recovered by trapping it to nitrocellulose using a Dot-Blot apparatus (Bio-Rad Laboratories, UK) according to manufacturer instruction. The samples were washed three times in ice-cold HEPES buffer (20 mM, pH 7.4). The amount of radiolabelled NAD bound to BARS was measured using a BetaImager (BioSpace Lab); the total amount of BARS bound to nitrocellulose was evaluated by red ponceau staining (Sigma-Aldrich) according to manufacturer instructions. Quantitative analyses were performed using GraphPad Prism Software.
A second virtual library was performed using the whole KEGG COMPOUND Database. […] To rank the molecules according to their affinity for BARS, the inventors set up a new assay for determining the capability of the 28 candidate molecules to compete for the binding of NAD to BARS. To this purpose, radiolabeled NAD and recombinant BARS were incubated for 2 h in the presence of a range of concentrations (from 0.01 to 100 μM) of the molecules. At the end of the incubation BARS was recovered by trapping it to nitrocellulose using a dot blot apparatus, and the radiolabelled NAD bound to BARS was evaluated by measuring the radioactivity using a BetaImager (BioSpace Lab).

[1] = test system: Zonula Occludens (ZO1), CtBP target gene; assay: Expression of CtBP target genes, Western blot of Zonula Occludens; type: cell-based, human; details: HeLa; for protein levels of Zonula Occludes: 2 and 4 days, Western blot; for minimal effective concentration: minimum effective concentration, Zonula Occludens protein, read-out: CtBP target genes increase (corepressive activity inhibition) Western Blot
Procedure: At the end of the incubations part of the samples was analyzed by western blot. To this purpose, the samples were washed with ice-cold PBS and lysed in 100 μl of SDS sample buffer. The samples were then separated on 8% SDS-PAGE gels, transferred onto nitrocellulose, and subjected to Western blotting using an antibody against Zonula Occludens (anti ZO1; Cell Signaling N. Cat. 5406) and an antibody against GAPDH (AbD Serotec) as a reference. The anti ZO1 antibody was used at a 1:1000 dilution; the anti GAPDH antibody was used at an 1:100000 dilution. The nitrocellulose membranes were subjected to ECL (as described above). The freeware ImageJ software (http://imagej.nih.gov) was used for quantitative analysis.

HeLa cells = assay: Cell viability assay (Hoechst cell number); details: for effect on cell viability: even at 100 microM; for 50% Viability: 0.01 to 100 μM
Procedure: Quantitative analyses were performed using a GraphPad Prism Software.
At the end of the incubation the cells have been fixed, stained with Hoechst to label the DNA and analysed using a fluorescence microscope for the automated images acquisition and analysis (Olympus ScaR). […] An EC50 was calculated for the remaining molecules.

[2] = Homo sapiens, 48 h, read-out: 50% Viability

| EC50 (HeLa cells; [2]) [µM] | EC50 (HeLa cells; read-out: 50% Viability, 48 h, 0.01 to 100 μM) [µM] | Structure (SMILES) | NAD Displac. (%) (recombinant BARS) | competition for the binding of NAD to BARS (selection) (recombinant BARS) | protein levels of Zonula Occludes [1] | minimal effective concentration ([1]; Homo sapiens) [µM] | effect on cell viability (HeLa cells; 48 h) | 50% Viability (HeLa cells; 48 h) | minimal effective concentration [1] [µM] |
| --- | --- | --- | --- | --- | --- | --- | --- | --- | --- |
| > 100 | – | O=P(O)(O)C(O)(Cc1cccnc1)P(=O)(O)O [C26, [1-hydroxy-1-phosphono-2-(pyridin-3-yl)ethyl]phosphonic acid] | 30 | best competitors | able to increase | 1 | did not affect (or had minor effects) | – | – |
| – | – | CCCCOc1ccc(C2=N/C(=C\c3cc(OC)c(OC)cc3OC)C(=O)O2)cc1 [C10, (4Z)-2-(4-butoxyphenyl)-4-[(2,4,5-trimethoxyphenyl)methylidene]-4,5-dihydro-1,3-oxazol-5-one] | 30 | best competitors | – | – | did not affect (or had minor effects) | Little | – |
| – | – | Cc1c(Cc2c(Cl)cccc2Cl)c(=O)oc2cc(OCC(=O)OCC(=O)c3ccc(Cl)cc3)ccc12 [C12, 2-(4-chlorophenyl)-2-oxoethyl 2-{[3-(2,6-dichlorobenzyl)-4-methyl-2-oxo-2H-chromen-7-yl]oxy}acetate] | 23 | best competitors | – | – | did not affect (or had minor effects) | Little | – |
| > 100 | – | NCc1ccccc1CC(=O)N[C@@H]1C(=O)N2C(C(=O)O)=C(CSc3nnnn3CC(=O)O)CS[C@H]12 [C29, (6R,7R)-7-[2-[2-(Aminomethyl)phenyl]acetamido]-3-[1-(carboxymethyl)-1H-tetrazol-5-ylsulfanylmethyl]-8-oxo-5-thia-1-azabicyclo[4.2.0]-2-octene-2-carboxylic acid] | 35 | best competitors | – | – | did not affect (or had minor effects) | – | – |
| > 100 | – | O=C1C2C3c4ccccc4C(c4ccccc43)C2C(=O)N1C(CO)(CO)CO [C8, (9R,10S,11S,15R)-13-(1,3-dihydroxy-2-(hydroxymethyl)propan-2-yl)-10,11-dihydro-9H-9,10-[3,4]epipyrroloanthracene-12,14(13H,15H) dione] | – | – | able to increase | 10 | did not affect (or had minor effects) | – | – |
| – | – | C[C@H]1[C@H](NC(=O)C(=NOC(C)(C)C(=O)O)c2csc(N)n2)C(=O)N1S(=O)(=O)O (stereo in doubt) [C28, 2-[(Z)-[1-(2-amino-1,3-thiazol-4-yl)-2-[[(2S,3S)-2-methyl-4-oxo-1-sulfoazetidin-3-yl]amino]-2-oxoethylidene]amino]oxy-2-methylpropanoic acid] | 15 | – | able to increase | 1 | did not affect (or had minor effects) | – | – |
| > 100 | – | NC(=O)[C@@H]1CCCN1C(=O)[C@H](Cc1cnc[nH]1)NC(=O)[C@@H]1CCC(=O)N1 [C21, (2S)-N-[(2S)-1-[(2S)-2-carbamoylpyrrolidin-1-yl]-3-(1H-imidazol-5-yl)-1-oxopropan-2-yl]-5-oxopyrrolidine-2-carboxamide] | – | – | – | – | did not affect (or had minor effects) | – | – |
| – | – | COc1ccc(-c2coc3cc(O[C@@H]4O[C@H](CO)[C@@H](O)[C@H](O)[C@H]4O)ccc3c2=O)cc1 [C15, 3-(4-methoxyphenyl)-7-{[(2S,3R,4S,5S,6R)-3,4,5-trihydroxy-6-(hydroxymethyl)oxan-2-yl]oxy}-4H-chromen-4-one] | – | – | able to increase | 5 | did not affect (or had minor effects) | Little | – |
| > 100 | – | O=C(CCc1ccc(O)cc1)c1c(O)cc(O)cc1O[C@@H]1O[C@H](CO)[C@@H](O)[C@H](O)[C@H]1O [C16, 1-(2,4-dihydroxy-6-{[(2S,3R,4S,5S,6R)-3,4,5-trihydroxy-6-(hydroxymethyl)oxan-2-yl]oxy}phenyl)-3-(4-hydroxyphenyl)propan-1-one] | – | – | – | – | did not affect (or had minor effects) | – | – |
| > 100 | – | CC(=O)CC(c1ccc([N+](=O)[O-])cc1)c1c(O)c2ccccc2oc1=O (stereo not drawn) [C5, 4-Hydroxy-3-[1-(4-nitrophenyl)-3-oxobutyl]-2H-1-benzopyran-2-one] | – | – | – | – | did not affect (or had minor effects) | – | – |
| – | > 100 | CN1CCc2c(sc(/N=C/c3cccs3)c2C(N)=O)C1 [C9, 6-methyl-2-[(E)-(thiophen-2-ylmethylidene)amino]-4H,5H,6H,7H-thieno[2,3-c]pyridine-3-carboxamide] | – | – | able to increase | – | did not affect (or had minor effects) | – | 10 |
| – | – | O=C(O)Cc1nn(Cc2nc3cc(C(F)(F)F)ccc3s2)c(=O)c2ccccc12 [C18, 2-[4-Oxo-3-[5-(trifluoromethyl)benzothiazol-2-ylmethyl]-3,4-dihydrophthalazin-1-yl]acetic acid] | – | – | – | – | did not affect (or had minor effects) | Little | – |
| > 100 | – | COc1cc(C2Oc3c(O)cc(C4Oc5cc(O)cc(O)c5C(=O)C4O)cc3C2CO)ccc1O (stereo not drawn) [C17, 3beta,5,7-Trihydroxy-2alpha-[7-hydroxy-2beta-(4-hydroxy-3-methoxyphenyl)-3alpha-(hydroxymethyl)-2,3-dihydrobenzofuran-5-yl]-2,3-dihydro-4H-benzo[b]pyran-4-one] | – | – | – | – | did not affect (or had minor effects) | – | – |
| 1 | – | C#C[C@]1(O)CC[C@H]2[C@@H]3CCc4cc(OC5CCCC5)ccc4[C@H]3CC[C@@]21C [C19, 17alpha-Ethynylestradiol 3-cyclopentyl ether] | – | – | – | – | – | – | – |

| Structure (SMILES) | EC50 (HeLa cells; [2]) [µM] | EC50 (HeLa cells; read-out: 50% Viability, 48 h, 0.01 to 100 μM) [µM] | NAD Displac. (%) (recombinant BARS) | competition for the binding of NAD to BARS (selection) (recombinant BARS) | protein levels of Zonula Occludes [1] | minimal effective concentration ([1]; Homo sapiens) [µM] | effect on cell viability (HeLa cells; 48 h) | 50% Viability (HeLa cells; 48 h) | minimal effective concentration [1] [µM] |
| --- | --- | --- | --- | --- | --- | --- | --- | --- | --- |
| CC(=O)CC(c1ccccc1)c1c(O)c2ccccc2oc1=O (stereo not drawn) [C1, 4-Hydroxy-3-(3-oxo-1-phenylbutyl)-2H-1-benzopyran-2-one] | > 100 | – | 15 | best competitors | able to increase | 100 | did not affect (or had minor effects) | – | – |
| COc1cc(CNC(=O)CCCC/C=C/C(C)C)ccc1O [C6, N-(4-Hydroxy-3-methoxybenzyl)-8-methyl-6(E)-nonenamide 8-Methyl-N-vanillyl-trans-6-nonenamide] | > 100 | – | 20 | best competitors | – | – | did not affect (or had minor effects) | – | – |
| O=C1OC(c2c(O)c3ccccc3oc2=O)c2ccccc21 (stereo not drawn) [C14, 4-hydroxy-3-(3-oxo-1,3-dihydroisobenzofuran-1-yl)-2H-chromen-2-one] | 10 | – | – | – | – | – | – | – | – |
| NS(=O)(=O)Oc1ccc2c3c(c(=O)oc2c1)CCCCC3 [C3, Sulfamic acid 6-oxo-6,7,8,9,10,11-hexahydrocyclohepta[c]-1-benzopyran-3-yl ester] | 10 | – | – | – | – | – | – | – | – |
| CC(=O)CC(c1ccc(Cl)cc1)c1c(O)c2ccccc2oc1=O (stereo not drawn) [C4, 3-[1-(4-chlorophenyl)-3-oxobutyl]-4-hydroxychromen-2-one] | > 100 | – | 20 | best competitors | able to increase | 10 | did not affect (or had minor effects) | – | – |
